The NIST ThermoML archive (doi:10.1021/acs.jced.7b00485)
Numbers after ± are expanded uncertainties.

Details: Liquid, Closed cell (Static) method

Compound	vapor or sublimation pressure (273.27 K) [kPa]	vapor or sublimation pressure (288.25 K) [kPa]	vapor or sublimation pressure (294.23 K) [kPa]	vapor or sublimation pressure (296.23 K) [kPa]	vapor or sublimation pressure (308.21 K) [kPa]	vapor or sublimation pressure (323.19 K) [kPa]
CCCC [butane]	104 ± 1	177 ± 1	215 ± 1	231 ± 1	332 ± 1	498 ± 1
FC(F)(F)C(F)(F)F [hexafluoroethane]	1851 ± 3	2708 ± 4				
